From the NIST ThermoML archive (doi:10.1021/je060485s)

Tests used:
[1] = for surface tension liquid-gas: Pendant drop shape; for mass density: 101 kPa, Liquid
[2] = xn = mol fraction of the nth substance listed; settings: for surface tension liquid-gas: Pendant drop shape; for mass density: 101 kPa, Liquid

Cc1ccccc1C [1,2-dimethylbenzene]
[1]
Settings	mass density [kg/m3]	surface tension liquid-gas [mN/m]
298.15 K	875.05	29.89
303.15 K	870.83	29.24
308.15 K	866.62	28.57

Cc1ccccc1C [1,2-dimethylbenzene] + CCCOC(C)=O
[2], x2 = 0
Settings	mass density [kg/m3]	surface tension liquid-gas [mN/m]
298.15 K	875.05	29.89
303.15 K	870.83	29.24
308.15 K	866.62	28.57

Cc1cccc(C)c1 [1,3-dimethylbenzene]
[1]
Settings	mass density [kg/m3]	surface tension liquid-gas [mN/m]
298.15 K	859.8	28.47
303.15 K	855.51	27.93
308.15 K	851.19	27.37

Cc1cccc(C)c1 [1,3-dimethylbenzene] + CCCOC(C)=O
[2]
Settings	mass density [kg/m3]	surface tension liquid-gas [mN/m]
298.15 K, x2 = 0	859.8	28.47
298.15 K, x2 = 0.0997	861.98	27.86
298.15 K, x2 = 0.1999	864.17	27.26
298.15 K, x2 = 0.2986	866.33	26.7
298.15 K, x2 = 0.4002	868.57	26.16
298.15 K, x2 = 0.4986	870.76	25.71
298.15 K, x2 = 0.6004	873.06	25.3
298.15 K, x2 = 0.6984	875.31	24.94
298.15 K, x2 = 0.8004	877.7	24.59
298.15 K, x2 = 0.9007	880.11	24.25
303.15 K, x2 = 0	855.51	27.93
303.15 K, x2 = 0.0999	857.57	27.35
303.15 K, x2 = 0.1989	859.62	26.79
303.15 K, x2 = 0.299	861.69	26.25
303.15 K, x2 = 0.4003	863.8	25.73
303.15 K, x2 = 0.5	865.9	25.27
303.15 K, x2 = 0.5994	868.02	24.88
303.15 K, x2 = 0.6998	870.19	24.51
303.15 K, x2 = 0.8006	872.42	24.15
303.15 K, x2 = 0.8992	874.66	23.81
308.15 K, x2 = 0	851.19	27.37
308.15 K, x2 = 0.0998	853.12	26.8
308.15 K, x2 = 0.2	855.07	26.25
308.15 K, x2 = 0.2998	857.01	25.71
308.15 K, x2 = 0.3993	858.96	25.19
308.15 K, x2 = 0.5006	860.96	24.7
308.15 K, x2 = 0.6004	862.95	24.27
308.15 K, x2 = 0.6999	864.97	23.89
308.15 K, x2 = 0.7988	867.02	23.52
308.15 K, x2 = 0.9013	869.2	23.15

Cc1ccc(C)cc1 [1,4-dimethylbenzene]
[1]
Settings	mass density [kg/m3]	surface tension liquid-gas [mN/m]
298.15 K	856.92	28.08
303.15 K	852.58	27.47
308.15 K	848.26	27.13
